Test results reported in patent US11685785B2, “Methods and antibodies for modulation of immunoresponse” (Ascendo Biotechnology, Inc., priority 2015, dated 2023).

Tested on: LPS-primed monocytes
Assay: Surface molecule expression on LPS-primed human monocytes (flow cytometry)
Format: cell-based
Conditions: LPS 100 ng/ml, 18 hr, 10 μM compound vs DMSO control; flow cytometry MFI
Method: Human monocytes were stimulated with LPS (100 ng/ml) in the presence of either an isotype control IgG, or anti-CD11b antibody (ICRF44) for 18 hr. The cells were harvested and HLA-DR, PD-L1, CD80 and CD86 molecules were analyzed using flow cytometry. Surface molecule expression is presented as the MFI. Values are presented as the mean±SEM from 3 independent experiments.
FIGS. 2 A and B show the effect of cell adhesion to fibrinogen and reduction of PD-L1 expression by binding CD11b, respectively. […] 25000 of K562/CD11b cells adhered to the bottom of fibrinogen (20 μg/ml)-coated wells in the presence of 10 μM ML-C19-A or DMSO at 37° C. for 20 min. The results were quantitated by luciferase-based CellTiter-Glo (Promega CO.). Each bar represents mean±SEM of triplicate determinations from a representative experiment. […] Human monocytes were stimulated with LPS (100 ng/ml) in the presence of either DMSO control or 10 μM of ML-C19-A for 18 hr. The cells were harvested and PD-L1 molecules were analyzed using flow cytometry. Surface molecule expression is presented as the MFI. Values are presented as the mean±SEM from 10 independent experiments.
Primed-monocytes were incubated in the presence of either an isotype control IgG, anti-CD11b antibody (ICRF44) or humanized anti-CD11b antibodies for 18 hr. The cells were harvested and PD-L1 expression on monocytes was analyzed using flow cytometry. […]

NS(=O)(=O)c1ccc(N2C(=O)c3cccc4cccc(c34)C2=O)cc1 [ML-C19-A]
PD-L1 expression in LPS-primed monocytes: inhibitory
